Laboratory results published in the supplement of paper PMC11451515.

Columns and labels:
Settings in all cases: 48 h
[1] = system: SEM cells; assay: AUC of viability dose-response curve (% viability x log10 dose units); higher = less sensitive
Outline: (§1)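 Leukemia cells adapted to each medium (500 or 1000 cells/well, 1536-well plates) were exposed to library compounds in DMSO for 48 h at 37°C at 11 threefold doses, 47 μM to 0.79 nM. Luminescence by CellTiter-Glo One was normalised per plate to DMSO and cell-free wells, then fitted with a four-parameter log-logistic curve on log10 dose. Curves above full viability were scaled and quality-control failures removed before area under the curve was integrated by trapezoidal rule.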

[2] = system: P12-Ichikawa; assay: as above
Outline: as §1

[3] = system: NOMO1; assay: as above
Outline: as §1

[4] = system: SEM cells; assay: cell viability relative to DMSO control; higher = less cytotoxic
Outline: (§2)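 Viability values are per-plate percentages of DMSO wells, with background from cell-free wells. Library compounds in DMSO were pin-dosed, in an 11-point threefold series from 47 μM to 0.79 nM, onto NOMO1 or SEM (500 cells/well) or P12-Ichikawa (1000 cells/well) leukemia cells in 1536-well plates (5 μl). Those cells had been adapted for at least four passages in each medium, and CellTiter-Glo One luminescence was read after 48 h at 37°C.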

[5] = system: P12-Ichikawa; assay: as above
Outline: as §2

[6] = system: NOMO1; assay: as above
Outline: as §2

[7] = RPMI 5 mM glucose + 10% dialyzed FBS
[8] = HPLM + 10% dialyzed FBS, 0.000781 µM
[9] = HPLM + 10% dialyzed FBS, 0.00234 µM
[10] = HPLM + 10% dialyzed FBS, 0.00702 µM
[11] = HPLM + 10% dialyzed FBS, 0.0211 µM
[12] = HPLM + 10% dialyzed FBS, 0.0632 µM
[13] = HPLM + 10% dialyzed FBS, 0.19 µM
[14] = HPLM + 10% dialyzed FBS, 0.569 µM
[15] = HPLM + 10% dialyzed FBS, 1.71 µM
[16] = HPLM + 10% dialyzed FBS, 5.12 µM
[17] = HPLM + 10% dialyzed FBS, 15.4 µM
[18] = HPLM + 10% dialyzed FBS, 46.1 µM
[19] = RPMI 5 mM glucose + 10% dialyzed FBS, 0.000781 µM
[20] = RPMI 5 mM glucose + 10% dialyzed FBS, 0.00234 µM
[21] = RPMI 5 mM glucose + 10% dialyzed FBS, 0.00702 µM
[22] = RPMI 5 mM glucose + 10% dialyzed FBS, 0.0211 µM
[23] = RPMI 5 mM glucose + 10% dialyzed FBS, 0.0632 µM
[24] = RPMI 5 mM glucose + 10% dialyzed FBS, 0.19 µM
[25] = RPMI 5 mM glucose + 10% dialyzed FBS, 0.569 µM
[26] = RPMI 5 mM glucose + 10% dialyzed FBS, 1.71 µM
[27] = RPMI 5 mM glucose + 10% dialyzed FBS, 5.12 µM
[28] = RPMI 5 mM glucose + 10% dialyzed FBS, 15.4 µM
[29] = RPMI 5 mM glucose + 10% dialyzed FBS, 46.1 µM
[30] = RPMI 5 mM glucose + 10% FBS, 0.000781 µM
[31] = RPMI 5 mM glucose + 10% FBS, 0.00234 µM
[32] = RPMI 5 mM glucose + 10% FBS, 0.00702 µM
[33] = RPMI 5 mM glucose + 10% FBS, 0.0211 µM
[34] = RPMI 5 mM glucose + 10% FBS, 0.0632 µM
[35] = RPMI 5 mM glucose + 10% FBS, 0.19 µM
[36] = RPMI 5 mM glucose + 10% FBS, 0.569 µM
[37] = RPMI 5 mM glucose + 10% FBS, 1.71 µM
[38] = RPMI 5 mM glucose + 10% FBS, 5.12 µM
[39] = RPMI 5 mM glucose + 10% FBS, 15.4 µM
[40] = RPMI 5 mM glucose + 10% FBS, 46.1 µM

Cc1ccc([N+](=O)[O-])cc1[S+](=O)([O-])N(C)/N=C/c1cnc2ccc(Br)cn12 was tested, and the “AUC of viability dose-response curve” value ([1]; HPLM + 10% dialyzed FBS) was 203, the “AUC of viability dose-response curve” value ([1]; RPMI 5 mM glucose + 10% FBS) was 207 and the “AUC of viability dose-response curve” value [1, 7] was 222. The “AUC of viability dose-response curve” value ([2]; HPLM + 10% dialyzed FBS) was 250, the “AUC of viability dose-response curve” value ([2]; RPMI 5 mM glucose + 10% FBS) was 240 and the “AUC of viability dose-response curve” value [2, 7] was 244. The “AUC of viability dose-response curve” value ([3]; HPLM + 10% dialyzed FBS) was 196, the “AUC of viability dose-response curve” value ([3]; RPMI 5 mM glucose + 10% FBS) was 223 and the “AUC of viability dose-response curve” value [3, 7] was 217. For the same molecule, the cell viability [4, 8] was 106%, the cell viability [4, 9] was 118% and the cell viability [4, 10] was 96.1%. It also gave a cell viability [4, 11] of 75.7%, a cell viability [4, 12] of 74.5% and a cell viability [4, 13] of 13.9%. It also gave a cell viability [4, 14] of 8.58%, a cell viability [4, 15] of 5.5% and a cell viability [4, 16] of 5.52%. For the same molecule, the cell viability [4, 17] was 4.94%, the cell viability [4, 18] was 4.47% and the cell viability [4, 19] was 112%. The cell viability [4, 20] was 99.8%, the cell viability [4, 21] was 92.9% and the cell viability [4, 22] was 95.3%. It also gave a cell viability [4, 23] of 77.1%, a cell viability [4, 24] of 19.8% and a cell viability [4, 25] of 6.67%. The cell viability [4, 26] was 5.43%, the cell viability [4, 27] was 4.76% and the cell viability [4, 28] was 4.76%. For the same molecule, the cell viability [4, 29] was 3.83%, the cell viability [5, 8] was 120% and the cell viability [5, 9] was 110%. It also gave a cell viability [5, 10] of 113%, a cell viability [5, 11] of 118% and a cell viability [5, 12] of 108%. The cell viability [5, 13] was 50.1%, the cell viability [5, 14] was 20.2% and the cell viability [5, 15] was 7.63%. The cell viability [5, 16] was 9.25%, the cell viability [5, 17] was 9.2% and the cell viability [5, 18] was 4.27%. The cell viability [5, 30] was 114%, the cell viability [5, 31] was 106% and the cell viability [5, 32] was 112%. For the same molecule, the cell viability [5, 33] was 113%, the cell viability [5, 34] was 95.6% and the cell viability [5, 35] was 40.9%. The cell viability [5, 36] was 15.2%, the cell viability [5, 37] was 5.49% and the cell viability [5, 38] was 6.55%. The cell viability [5, 39] was 8.88%, the cell viability [5, 40] was 3.76% and the cell viability [5, 19] was 119%. It also gave a cell viability [5, 20] of 122%, a cell viability [5, 21] of 111% and a cell viability [5, 22] of 115%. The cell viability [5, 23] was 91.3%, the cell viability [5, 24] was 51% and the cell viability [5, 25] was 24.6%. For the same molecule, the cell viability [5, 26] was 9.55%, the cell viability [5, 27] was 10.3% and the cell viability [5, 28] was 12.4%. For the same molecule, the cell viability [5, 29] was 5.41%, the cell viability [6, 8] was 110% and the cell viability [6, 9] was 116%. The cell viability [6, 10] was 107%, the cell viability [6, 11] was 89.8% and the cell viability [6, 12] was 56.5%. The cell viability [6, 13] was 12%, the cell viability [6, 14] was 6.54% and the cell viability [6, 15] was 5.77%. For the same molecule, the cell viability [6, 16] was 4.83%, the cell viability [6, 17] was 4.05% and the cell viability [6, 18] was 3.68%. For the same molecule, the cell viability [6, 30] was 121%, the cell viability [6, 31] was 105% and the cell viability [6, 32] was 95.9%. For the same molecule, the cell viability [6, 33] was 98.7%, the cell viability [6, 34] was 84.6% and the cell viability [6, 35] was 17.3%. For the same molecule, the cell viability [6, 36] was 7.83%, the cell viability [6, 37] was 5.79% and the cell viability [6, 38] was 5.05%. The cell viability [6, 39] was 4.32%, the cell viability [6, 40] was 4.08% and the cell viability [6, 19] was 102%. For the same molecule, the cell viability [6, 20] was 93.9%, the cell viability [6, 21] was 100% and the cell viability [6, 22] was 94.2%. The cell viability [6, 23] was 76.1%, the cell viability [6, 24] was 19.2% and the cell viability [6, 25] was 5.29%. The cell viability [6, 26] was 4.54%, the cell viability [6, 27] was 4.24% and the cell viability [6, 28] was 4%. For the same molecule, the cell viability [6, 29] was 2.94%.
CCOC(=O)C(C#N)C\1C2=CC(=CC=C2O\C(=C1C(=O)OCC)N)Br (stereo not given) was tested, and the “AUC of viability dose-response curve” value ([1]; HPLM + 10% dialyzed FBS) was 450, the “AUC of viability dose-response curve” value ([1]; RPMI 5 mM glucose + 10% FBS) was 462 and the “AUC of viability dose-response curve” value [1, 7] was 421. The “AUC of viability dose-response curve” value ([2]; HPLM + 10% dialyzed FBS) was 467, the “AUC of viability dose-response curve” value ([2]; RPMI 5 mM glucose + 10% FBS) was 452 and the “AUC of viability dose-response curve” value [2, 7] was 463. The “AUC of viability dose-response curve” value ([3]; HPLM + 10% dialyzed FBS) was 445, the “AUC of viability dose-response curve” value ([3]; RPMI 5 mM glucose + 10% FBS) was 449 and the “AUC of viability dose-response curve” value [3, 7] was 447. The cell viability [4, 8] was 93.4%, the cell viability [4, 9] was 102% and the cell viability [4, 10] was 117%. It also gave a cell viability [4, 11] of 49.8%, a cell viability [4, 12] of 113% and a cell viability [4, 13] of 99.9%. It also gave a cell viability [4, 14] of 99.5%, a cell viability [4, 15] of 105% and a cell viability [4, 16] of 95.1%. For the same molecule, the cell viability [4, 17] was 86.1%, the cell viability [4, 18] was 63.8% and the cell viability [4, 30] was 113%. The cell viability [4, 31] was 116%, the cell viability [4, 32] was 114% and the cell viability [4, 33] was 44.5%. For the same molecule, the cell viability [4, 34] was 116%, the cell viability [4, 35] was 117% and the cell viability [4, 36] was 113%. It also gave a cell viability [4, 37] of 113%, a cell viability [4, 38] of 101% and a cell viability [4, 39] of 98%. The cell viability [4, 40] was 57.6%, the cell viability [4, 19] was 84.8% and the cell viability [4, 20] was 99.1%. For the same molecule, the cell viability [4, 21] was 103%, the cell viability [4, 22] was 49.8% and the cell viability [4, 23] was 108%. For the same molecule, the cell viability [4, 24] was 99.1%, the cell viability [4, 25] was 83.6% and the cell viability [4, 26] was 105%. The cell viability [4, 27] was 87.2%, the cell viability [4, 28] was 82.3% and the cell viability [4, 29] was 55.2%. It also gave a cell viability [5, 8] of 100%, a cell viability [5, 9] of 103% and a cell viability [5, 10] of 108%. For the same molecule, the cell viability [5, 11] was 92.8%, the cell viability [5, 12] was 103% and the cell viability [5, 13] was 103%. The cell viability [5, 14] was 99.1%, the cell viability [5, 15] was 104% and the cell viability [5, 16] was 105%. It also gave a cell viability [5, 17] of 94.6%, a cell viability [5, 18] of 75.7% and a cell viability [5, 30] of 104%. The cell viability [5, 31] was 102%, the cell viability [5, 32] was 106% and the cell viability [5, 33] was 88.5%. The cell viability [5, 34] was 106%, the cell viability [5, 35] was 117% and the cell viability [5, 36] was 103%. The cell viability [5, 37] was 102%, the cell viability [5, 38] was 97.9% and the cell viability [5, 39] was 90%. The cell viability [5, 40] was 89.4%, the cell viability [5, 19] was 101% and the cell viability [5, 20] was 99.1%. For the same molecule, the cell viability [5, 21] was 105%, the cell viability [5, 22] was 83.9% and the cell viability [5, 23] was 94.9%. It also gave a cell viability [5, 24] of 105%, a cell viability [5, 25] of 102% and a cell viability [5, 26] of 92.7%. For the same molecule, the cell viability [5, 27] was 101%, the cell viability [5, 28] was 95% and the cell viability [5, 29] was 80%. The cell viability [6, 8] was 113%, the cell viability [6, 9] was 120% and the cell viability [6, 10] was 110%. For the same molecule, the cell viability [6, 11] was 99.9%, the cell viability [6, 12] was 114% and the cell viability [6, 13] was 104%. The cell viability [6, 14] was 96.1%, the cell viability [6, 15] was 107% and the cell viability [6, 16] was 117%. The cell viability [6, 17] was 92.4%, the cell viability [6, 18] was 97.5% and the cell viability [6, 30] was 97.8%. For the same molecule, the cell viability [6, 31] was 90.3%, the cell viability [6, 32] was 97.5% and the cell viability [6, 33] was 87.9%. The cell viability [6, 34] was 99.3%, the cell viability [6, 35] was 102% and the cell viability [6, 36] was 107%. It also gave a cell viability [6, 37] of 91.5%, a cell viability [6, 38] of 94.5% and a cell viability [6, 39] of 83.7%. It also gave a cell viability [6, 40] of 82.4%, a cell viability [6, 19] of 99.1% and a cell viability [6, 20] of 95.1%. It also gave a cell viability [6, 21] of 99%, a cell viability [6, 22] of 95.7% and a cell viability [6, 23] of 104%. It also gave a cell viability [6, 24] of 83.8%, a cell viability [6, 25] of 94.4% and a cell viability [6, 26] of 94.7%. The cell viability [6, 27] was 96.7%, the cell viability [6, 28] was 80.3% and the cell viability [6, 29] was 82.6%.
